Data taken from patent US10626093B2, “Polymorphic form of crystalline rosuvastatin calcium and novel processes for crystalline as well as amorphous rosuvastatin calcium” (MOREPEN LABORATORIES LIMITED, priority 2016, dated 2020).

Columns and labels:
[1] = Stability study of Rosuvastatin calcium form M2 (plant batches, RT); type: physicochemical
Method: According to still another embodiment of current invention, The form M2 is stable at 30° C. with 65% RH for 24 months & 40° C. with 75% RH for 6 months for all ICH/EP/USP grade.

[2] = Stability study of Rosuvastatin calcium form M (30° C./65% RH and 40° C./75% RH); type: physicochemical
Method: According to one more aspect of current invention, the form M is stable at 30° C. with 65% RH for 48 months & 40° C. with 75% RH for 6 months for all ICH/EP/USP grade.

[3] = 40° C. with 75% RH for 6 months

## 7-[4-(4-flurophenyl)-6-isopropyl-2-(N-methyl-N-methyl sulfonyl amino)-pyrimidin-5-yl]-(3R,5S)-dihydroxy-hept-6-enoic acid Calcium salt [form M2]
[1]; 30° C. with 65% RH for 24 months
  Stability: stable
[1]; [3]
  Stability: stable

## 7-[4-(4-flurophenyl)-6-isopropyl-2-(N-methyl-N-methylsulfonylamino)-pyrimidin-5-yl]-(3R,5S)-dihydroxy-hept-6-enoic acid Calcium salt [form M]
[2]; 30° C. with 65% RH for 48 months
  Stability: stable
[2]; 30° C./65% RH, 3 months
  Assay (OAB): 99.58 % w/w
  Description: A white
  Related Substances (HPLC) Individual Unknown Imp.: 0.02%
  Related Substances (HPLC) Lactone: 0.05%
  Related Substances (HPLC) RT-07: 0.05%
  Related Substances (HPLC) Total Imp.: 0.16%
  Water: 5.30%
[2]; 30° C./65% RH, 6 months
  Assay (OAB): 99.54 % w/w
  Description: A white
  Related Substances (HPLC) Individual Unknown Imp.: 0.04%
  Related Substances (HPLC) Lactone: 0.04%
  Related Substances (HPLC) RT-07: 0.05%
  Related Substances (HPLC) Total Imp.: 0.14%
  Water: 5.43%
[2]; 30° C./65% RH, 9 months
  Assay (OAB): 99.33 % w/w
  Description: A white
  Related Substances (HPLC) Individual Unknown Imp.: 0.02%
  Related Substances (HPLC) Lactone: 0.04%
  Related Substances (HPLC) RT-07: 0.05%
  Related Substances (HPLC) Total Imp.: 0.14%
  Water: 5.44%
[2]; 30° C./65% RH, 12 months
  Assay (OAB): 99.55 % w/w
  Description: A white
  Related Substances (HPLC) Anti-Isomer: 0.04%
  Related Substances (HPLC) Individual Unknown Imp.: 0.02%
  Related Substances (HPLC) Lactone: 0.05%
  Related Substances (HPLC) RT-07: 0.06%
  Related Substances (HPLC) Total Imp.: 0.17%
  Water: 5.55%
[2]; 30° C./65% RH, 18 months
  Assay (OAB): 99.70 % w/w
  Description: A white
  Related Substances (HPLC) Anti-Isomer: 0.03%
  Related Substances (HPLC) Individual Unknown Imp.: 0.02%
  Related Substances (HPLC) Lactone: 0.04%
  Related Substances (HPLC) RT-07: 0.05%
  Related Substances (HPLC) Total Imp.: 0.16%
  Water: 5.57%
[2]; 30° C./65% RH, 24 months
  Assay (OAB): 99.81 % w/w
  Description: A white
  Related Substances (HPLC) Anti-Isomer: 0.04%
  Related Substances (HPLC) Individual Unknown Imp.: 0.02%
  Related Substances (HPLC) Lactone: 0.04%
  Related Substances (HPLC) RT-07: 0.05%
  Related Substances (HPLC) Total Imp.: 0.15%
  Water: 5.72%
[2]; 30° C./65% RH, 36 months
  Assay (OAB): 99.75 % w/w
  Description: A white
  Related Substances (HPLC) Anti-Isomer: 0.04%
  Related Substances (HPLC) Individual Unknown Imp.: 0.02%
  Related Substances (HPLC) Lactone: 0.04%
  Related Substances (HPLC) RT-07: 0.05%
  Related Substances (HPLC) Total Imp.: 0.16%
  Water: 5.74%
[2]; 30° C./65% RH, 48 months
  Assay (OAB): 99.66 % w/w
  Description: A white
  Related Substances (HPLC) Anti-Isomer: 0.05%
  Related Substances (HPLC) Individual Unknown Imp.: 0.02%
  Related Substances (HPLC) Lactone: 0.04%
  Related Substances (HPLC) RT-07: 0.05%
  Related Substances (HPLC) Total Imp.: 0.16%
  Water: 5.90%
[2]; [3]
  Stability: stable
[2]; 40° C./75% RH, 1 month
  Assay (OAB): 100.03 % w/w
  Description: A white
  Related Substances (HPLC) Individual Unknown Imp.: 0.03%
  Related Substances (HPLC) Lactone: 0.04%
  Related Substances (HPLC) RT-07: 0.05%
  Related Substances (HPLC) Total Imp.: 0.14%
  Water: 5.65%
[2]; 40° C./75% RH, 2 months
  Assay (OAB): 99.93 % w/w
  Description: A white
  Related Substances (HPLC) Individual Unknown Imp.: 0.02%
  Related Substances (HPLC) Lactone: 0.04%
  Related Substances (HPLC) RT-07: 0.05%
  Related Substances (HPLC) Total Imp.: 0.15%
  Water: 5.59%
[2]; 40° C./75% RH, 3 months
  Assay (OAB): 100.03 % w/w
  Description: A white
  Related Substances (HPLC) Individual Unknown Imp.: 0.02%
  Related Substances (HPLC) Lactone: 0.04%
  Related Substances (HPLC) RT-07: 0.05%
  Related Substances (HPLC) Total Imp.: 0.13%
  Water: 5.66%
[2]; 40° C./75% RH, 6 months
  Assay (OAB): 99.59 % w/w
  Description: A white
  Related Substances (HPLC) Individual Unknown Imp.: 0.02%
  Related Substances (HPLC) Lactone: 0.04%
  Related Substances (HPLC) RT-07: 0.04%
  Related Substances (HPLC) Total Imp.: 0.12%
  Water: 5.63%
[2]; Initial
  Assay (OAB): 100.08 % w/w
  Description: A white
  Related Substances (HPLC) Individual Unknown Imp.: 0.02%
  Related Substances (HPLC) Lactone: 0.02%
  Related Substances (HPLC) RT-07: 0.05%
  Related Substances (HPLC) Total Imp.: 0.13%
  Water: 5.06%
